# Results: patent US8822413B2, “Bifunctional hormone having alpha-MSH activity and natriuretic peptide activity and uses thereof” (Theratechnologies Inc., priority 2007, dated 2014)
# Bridge positions count the residues as written; N and C are the ends. Square brackets hold non-standard residues; d marks the D form. Peptide text beside a SMILES is read from it.
# How the values were obtained:
# Type in all cases: in vivo, rat
# CD11b/c, KIM-1 and IL-1β = experiment: Western blot of inflammatory and tubular injury markers in kidneys after renal ischemia; details: 15 μg/kg/h for 24 h, renal clamping 30 min, FIG. 6
# Protocol: Bifunctional hormone #33 was infused at an infusion rate of 15 μg/kg/h for 24 h using Alzet™ minipumps. The proteins were identified with specific antibodies. (A) Western blot. (B) Histograms showing the relative abundance of the markers.
# Renal ischemia elicits increased expression of inflammatory markers such as IL-1, IL-18, Tumor Necrosis Factor alpha (TNF-α) and CD11b (neutrophil marker; evidence of neutrophil infiltration of the tissue) as well as tubular epithelial markers such as KIM-1, NGAL and NAG. There is considerable interest in these markers since these markers are expressed earlier than the observed rise in serum creatinine levels. Therefore, diagnosis of acute kidney injury based on the markers allows for earlier treatment of the patients which may produce better outcomes in terms of dialysis need and mortality. The effect of the bifunctional hormone #33 on the expression of inflammatory and tubular injury markers was assessed using the animal model described in Example 5.
# Preparation of dosing solutions. Peptide #33 was infused for 24 h at an infusion rate of 15 μg/Kg/h using Alzet™ minipumps.
# Western blotting. Fresh kidneys were rapidly dissected and homogenized with a tissue homogenizer in ice cold lysis buffer: 20 mM Tris, 135 mM NaCl, 1% NP-40™, 0.1% SDS, 10% glycerol containing Complete-Mini Protease Inhibitor Cocktail™ (Roche). Following a 15-min incubation on ice, samples were centrifuged at 13,000 rpm for 5 min at 4° C. and the supernatants containing solubilized protein extracts were collected. Protein samples (40 ug protein) were resolved on 10% SDS polyacrylamide gel electrophoresis and transferred to PVDF membranes (Amersham, Pharmacia). Non-specific binding was eliminated by incubating membranes for 1 h at room temperature in a solution of 5% non-fat milk in TBST (10 mM Tris, 150 mM NaCl, 0.2% Tween-20). […]
# Sprague-Dawley (SD) rats [1] = experiment: Prophylactic treatment, acute kidney dysfunction following renal ischemia (renal artery clamping)
# Protocol: Plasma creatinine and urea were determined at different times. Data were analyzed by two way ANOVA using Bonferroni test for significance against the saline-treated group (n=3 per group; sal n=6).
# Animals. Sprague-Dawley (SD) rats (male, weighing from 300 to 330 g) were obtained from Charles River Inc. Animals were maintained on standard laboratory chow under a 12:12 light:dark cycle.
# Surgical preparation. The rats were anesthetized with Isoflurane 2.5% for the duration of the experiment. Animals were placed under radiant warmer to keep the temperature at 37.5° C. A blood sample (0.5 ml) was collected via tail vein artery before the renal artery clamping. Once the animal was anesthetized, placed in a supine position, a 1.5 cm flank incision was made on the right side of the abdominal wall. The right kidney was then exposed and the ureter, renal artery and renal vein were carefully dissected and ligated. The kidney was removed after cutting renal pedicle. A same incision was made on the left side of the abdominal wall. The left kidney is exposed and the renal vascular pedicle is carefully dissected. The renal vascular pedicle was then occluded by placing a vascular clip (Micro Serrefine™, Fine Science Tools) for a period of 30 or 45 minutes. This renal vascular pedicle clamping produced an acute renal artery occlusion (RAO). The kidney was inspected for ischemia as well as for good reperfusion after removing vascular clip for 2 minutes. The wound of abdominal wall was closed in two layers. The muscular layer was closed with a running 3-0 silk suture and the skin was closed with suture clips (Fine Science Tools). 21 hours after right nephrectomy and left renal artery clipping procedure, the rats were put in the metabolic cages for urine collection (in pre-weighed Tube 50 ml) for 3 hours. Urine volume was measured by weighing the tube containing urine. Then, the animals were anesthetized with Isoflurane 2.5%. Left kidney was removed and kept in formalin for future histology. […]
# Sprague-Dawley (SD) rats [2] = experiment: Chronic infusion, acute kidney dysfunction following renal ischemia; details: FIG. 5
# Protocol: After removing the renal artery clamps, peptide #2 or #33 was infused at two doses using intraperitoneally implanted Alzet™ minipumps (2ML1; delivery rate 10 μl/h). Plasma creatinine and BUN were determined at the indicated times. Data were analyzed by two way ANOVA using Bonferroni test for significance against the saline-treated group (n=3 per group; sal n=6); and
# (§1) Surgical preparation. The rats were anesthetized with Isoflurane 2.5% for the duration of the experiment. Animals were placed under radiant warmer to keep the temperature at 37.5° C. A blood sample (0.5 ml) was collected via tail vein artery before the renal artery clamping. Once the animal was anesthetized, placed in a supine position, a 1.5 cm flank incision was made on the right side of the abdominal wall. The right kidney was then exposed and the ureter, renal artery and renal vein were carefully dissected and ligated. The kidney was removed after cutting renal pedicle. A same incision was made on the left side of the abdominal wall. The left kidney is exposed and the renal vascular pedicle is carefully dissected. The renal vascular pedicle was then occluded by placing a vascular clip (Micro Serrefine™, Fine Science Tools) for a period of 30 or 45 minutes. This renal vascular pedicle clamping produced an acute renal artery occlusion (RAO). The kidney was inspected for ischemia as well as for good reperfusion after removing vascular clip for 2 minutes. The wound of abdominal wall was closed in two layers. The muscular layer was closed with a running 3-0 silk suture and the skin was closed with suture clips (Fine Science Tools). 21 hours after right nephrectomy and left renal artery clipping procedure, the rats were put in the metabolic cages for urine collection (in pre-weighed Tube 50 ml) for 3 hours. Urine volume was measured by weighing the tube containing urine. Then, the animals were anesthetized with Isoflurane 2.5%. Left kidney was removed and kept in formalin for future histology. Blood was collected by cardiac puncture into a heparinized syringe (3 ml) and immediately transferred into appropriately labeled tubes that contain heparin as the anticoagulant. Following collection, all blood samples were kept on ice and centrifuged for 2 min at 13000 rpm. Plasma and urine aliquots (400 μl) were removed and stored at −80° C.
# In order to test the effect of chronic infusion of the bifunctional hormone on kidney function on kidney injury, peptides #2 or #33 were infused at 1.5 or 15 μg/kg/h for 24 h after renal artery clamp removal. Plasma creatinine and urea nitrogen were determined at 24 h after the injury. The experimental procedures (animal model, dosing solutions) were the same as those described in Example 5 above.
# Sprague-Dawley (SD) rats [3] = experiment: Post-injury (therapeutic) treatment, acute kidney dysfunction following renal ischemia; details: 15 μg/kg/h for 2 h after clamp removal, FIG. 4
# Protocol: Peptides #2 and #33 were infused for 2 h after the removal of the renal clamps in the rat model of renal ischemia. Blood samples were collected at the indicated times and plasma creatinine and urea were determined. Data were analyzed by two way ANOVA using Bonferroni test for significance against the saline-treated group (n=3 per group; sal n=6);
# as §1
# Preparation of dosing solutions. Peptides (#2 and #33) were also made up fresh daily in a 0.1% HSA saline solution (33 μl of 30% HSA in […] saline) at concentration of 100 μg/100 μl. […]
# In order to verify if short infusions of the peptides post-injury (therapeutic treatment) would be beneficial to reduce kidney injury, peptides #2 or #33 were infused at 15 μg/kg/h for 2 h after renal artery clamp removal. Plasma creatinine and urea were determined at different times. […]
# [4] = 15 μg/kg/h infused 1 h before and 1 h after renal artery clamping, vs saline group, each time point, FIG. 3
# [5] = 1.5 or 15 μg/kg/h for 24 h after clamp removal (Alzet minipumps), vs saline-treated animals at 24 h
# [6] = later time points 21 h and 27 h
smiles,measurement,setting,value
"CC[C@H](C)[C@@H]1NC(=O)[C@H](CCCNC(=N)N)NC(=O)[C@H](CC(=O)O)NC(=O)[C@H](CCSC)NC(=O)[C@H](CCCNC(=N)N)NC(=O)CNC(=O)CNC(=O)[C@H](Cc2ccccc2)NC(=O)[C@@H](NC(=O)[C@H](CCSC)NC(=O)[C@@H]2CCCN2C(=O)[C@H](CCCCN)NC(=O)CNC(=O)[C@H](Cc2c[nH]c3ccccc23)NC(=O)[C@H](CCCNC(=N)N)NC(=O)[C@@H](Cc2ccccc2)NC(=O)[C@H](Cc2c[nH]cn2)NC(C)=O)CSSC[C@@H](C(=O)N[C@@H](CC(N)=O)C(=O)N[C@@H](CO)C(=O)N[C@@H](Cc2ccccc2)C(=O)N[C@@H](CCCNC(=N)N)C(=O)N[C@@H](Cc2ccc(O)cc2)C(N)=O)NC(=O)CNC(=O)[C@H](CC(C)C)NC(=O)CNC(=O)[C@H](CO)NC(=O)[C@H](CCC(N)=O)NC(=O)[C@H](C)NC(=O)CNC1=O [SEQ ID NO: 33, Ac-H-f-R-W-G-K-P-M-[C-F-G-G-R-M-D-R-I-G-A-Q-S-G-L-G-C]-N-S-F-R-Y-NH2] (Ac-H[dF]RWGKPMCFGGRMDRIGAQSGLGCNSFRY-NH2; disulfide 9-25)",expression of CD11b/c (neutrophil marker) in kidney,"CD11b/c, KIM-1 and IL-1β",reduced the expression
same,expression of IL-1β (inflammatory cytokine) in kidney,"CD11b/c, KIM-1 and IL-1β",reduced the expression
same,expression of KIM-1 (tubular injury marker) in kidney,"CD11b/c, KIM-1 and IL-1β",reduced the expression
same,blood urea nitrogen (BUN),Sprague-Dawley (SD) rats [1]; [4],significantly reduced the elevation
same,plasma creatinine,Sprague-Dawley (SD) rats [1]; [4],significantly reduced the elevation
same,"diminishing kidney injury, compared with native ANP","Sprague-Dawley (SD) rats [1]; prophylactic use, 15 μg/kg/h",as effective as native ANP
same,dose dependence of reduction in the blood markers of renal ischemia,Sprague-Dawley (SD) rats [2]; 1.5 and 15 μg/kg/h for 24 h,dose-dependent reduction
same,BUN,Sprague-Dawley (SD) rats [2]; [5],reduced plasma creatinine and BUN significantly
same,plasma creatinine,Sprague-Dawley (SD) rats [2]; [5],reduced plasma creatinine and BUN significantly
same,"reduction in BUN levels, compared with native ANP",Sprague-Dawley (SD) rats [2]; 24-hour infusion,more pronounced reduction
same,"reduction in creatinine levels, compared with native ANP",Sprague-Dawley (SD) rats [2]; 24-hour infusion,more pronounced reduction
same,BUN,Sprague-Dawley (SD) rats [3]; at 4 h,prevented the rise
same,plasma creatinine,Sprague-Dawley (SD) rats [3]; at 4 h,prevented the rise
same,"reducing BUN levels, compared with native ANP",Sprague-Dawley (SD) rats [3]; [6],more effective than native ANP
same,"reducing creatinine levels, compared with native ANP",Sprague-Dawley (SD) rats [3]; [6],more effective than native ANP
